Results from ChEMBL document CHEMBL1144238, “Identification and SAR around N-{2-[4-(2,3-dihydro-benzo[1,4]dioxin-2-ylmethyl)-[1,4]diazepan-1-yl]-ethyl}-2-phenoxy-nicotinamide, a selective alpha2C adrenergic receptor antagonist” (Bioorg Med Chem Lett, 2008).

Experiments:
[1] = biological target: T1, Alpha-2C adrenergic receptor (Homo sapiens, UniProt P18825); assay: Binding affinity at human recombinant adrenergic Alpha-2C receptor expressed in CHO cells by radioligand binding assay; assay type: cell-based
T1 sequence (P18825 whole entry): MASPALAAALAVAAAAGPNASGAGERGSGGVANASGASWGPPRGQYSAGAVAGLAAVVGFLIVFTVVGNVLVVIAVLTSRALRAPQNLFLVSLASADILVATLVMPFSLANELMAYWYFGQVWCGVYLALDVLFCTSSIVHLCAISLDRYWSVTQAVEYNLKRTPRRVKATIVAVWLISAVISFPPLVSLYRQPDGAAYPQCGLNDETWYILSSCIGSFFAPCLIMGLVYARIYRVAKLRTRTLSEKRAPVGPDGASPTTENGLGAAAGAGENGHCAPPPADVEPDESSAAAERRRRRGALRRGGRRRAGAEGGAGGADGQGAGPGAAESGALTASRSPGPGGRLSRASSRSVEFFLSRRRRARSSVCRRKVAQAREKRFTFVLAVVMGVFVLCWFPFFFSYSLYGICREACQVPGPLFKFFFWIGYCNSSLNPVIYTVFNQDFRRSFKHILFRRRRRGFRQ

[2] = biological target: T2, Alpha-2B adrenergic receptor (Homo sapiens, UniProt P18089); assay: Binding affinity at human recombinant adrenergic alpha2B receptor expressed in CHO cells by radioligand binding assay; assay type: cell-based
T2 sequence (P18089 whole entry): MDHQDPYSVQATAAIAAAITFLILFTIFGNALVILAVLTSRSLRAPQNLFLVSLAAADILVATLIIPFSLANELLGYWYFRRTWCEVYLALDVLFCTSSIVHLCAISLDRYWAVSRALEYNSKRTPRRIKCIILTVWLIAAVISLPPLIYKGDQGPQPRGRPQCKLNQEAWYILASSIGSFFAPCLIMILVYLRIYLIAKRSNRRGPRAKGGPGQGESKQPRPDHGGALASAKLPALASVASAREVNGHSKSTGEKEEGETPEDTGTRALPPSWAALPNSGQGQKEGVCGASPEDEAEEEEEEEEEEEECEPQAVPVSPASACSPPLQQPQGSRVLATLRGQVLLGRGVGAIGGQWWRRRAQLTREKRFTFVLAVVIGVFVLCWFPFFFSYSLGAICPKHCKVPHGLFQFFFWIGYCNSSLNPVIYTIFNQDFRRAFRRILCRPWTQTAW

[3] = biological target: T3, Alpha-2A adrenergic receptor (Homo sapiens, UniProt P08913); assay: Binding affinity at human recombinant adrenergic alpha2A receptor expressed in CHO cells by radioligand binding assay; assay type: cell-based
T3 sequence (P08913 whole entry): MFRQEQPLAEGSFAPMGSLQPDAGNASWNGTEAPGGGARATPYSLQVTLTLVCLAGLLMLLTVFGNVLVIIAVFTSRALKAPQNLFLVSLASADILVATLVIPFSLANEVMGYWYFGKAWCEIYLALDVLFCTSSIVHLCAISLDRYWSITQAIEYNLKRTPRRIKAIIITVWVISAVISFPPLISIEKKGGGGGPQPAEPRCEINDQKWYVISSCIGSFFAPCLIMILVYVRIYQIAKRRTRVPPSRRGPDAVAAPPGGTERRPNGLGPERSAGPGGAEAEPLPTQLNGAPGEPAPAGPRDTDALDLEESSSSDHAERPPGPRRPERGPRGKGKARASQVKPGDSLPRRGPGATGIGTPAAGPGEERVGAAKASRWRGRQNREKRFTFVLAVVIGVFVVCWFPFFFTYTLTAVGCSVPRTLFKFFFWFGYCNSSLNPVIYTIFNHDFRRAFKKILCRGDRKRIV

[4] = biological target: T1, Alpha-2C adrenergic receptor; assay: Antagonist activity at human recombinant adrenergic Alpha-2C receptor expressed in CHO cells assessed as inhibition of NE-induced calcium mobilization by FLIPR; assay type: functional, cell-based
[5] = biological target: T2, Alpha-2B adrenergic receptor; assay: Antagonist activity at human recombinant adrenergic alpha2B receptor expressed in CHO cells assessed as inhibition of NE-induced calcium mobilization by FLIPR; assay type: functional, cell-based
[6] = biological target: T3, Alpha-2A adrenergic receptor; assay: Antagonist activity at human recombinant adrenergic alpha2A receptor expressed in CHO cells assessed as inhibition of NE-induced calcium mobilization by FLIPR; assay type: functional, cell-based
Homo sapiens [7] = organism: Homo sapiens; assay: Selectivity for human recombinant adrenergic Alpha-2C receptor over human recombinant adrenergic alpha2B receptor by radioligand binding assay
Homo sapiens [8] = organism: Homo sapiens; assay: Selectivity for human recombinant adrenergic Alpha-2C receptor over human recombinant adrenergic alpha2A receptor by radioligand binding assay
Homo sapiens [9] = organism: Homo sapiens; assay: Selectivity human recombinant adrenergic Alpha-2C receptor over human recombinant adrenergic alpha2B receptor by FLIPR
Homo sapiens [10] = organism: Homo sapiens; assay: Selectivity human recombinant adrenergic Alpha-2C receptor over human recombinant adrenergic alpha2A receptor by FLIPR

Row | SMILES | Ki [1] [nM] | Ki [2] [nM] | Ki [3] [nM] | Ki [4] [nM] | Ki [5] [nM] | Ki [6] [nM] | Ratio Ki (Homo sapiens [7]) | Ratio Ki (Homo sapiens [8]) | Ratio Ki (Homo sapiens [9]) | Ratio Ki (Homo sapiens [10])
1 | c1ccc(CN2CCN(CC3CCc4ccccc4O3)CC2)cc1 (stereo not drawn) | 19.6 | 72.8 | 146 | 21.1 | 180 | 167 | 4 | 7 | 9 | 8
2 | N#Cc1cccc(Oc2ncccc2C(=O)NCCN2CCCN(CC3COc4ccccc4O3)CC2)c1 (stereo not drawn) | 0.8 | 36 | 208 | 1.9 | 27.5 | 501 | 48 | 275 | 14 | 262
3 | CC(C)(C)Nc1ncccc1C(=O)NCCN1CCCN(CC2COc3ccccc3O2)CC1 (stereo not drawn) | 0.5 | 28 | 138 | 30.5 | 103 | 366 | 58 | 286 | 3 | 12
4 | CCCCOc1ncccc1C(=O)NCCN1CCCN(CC2COc3ccccc3O2)CC1 (stereo not drawn) | 0.8 | 10.5 | 81 | 4.8 | 13.3 | 73.6 | 13 | 103 | 3 | 15
5 | c1ccc(CN2CCN(CC3COc4ccccc4C3)CC2)cc1 (stereo not drawn) | > 500 | > 500 | > 500 | – | – | – | – | – | – | –
6 | COc1ccccc1N1CCN(CC2COc3ccccc3O2)CC1 (stereo not drawn) | 33 | 194 | 506 | 23 | 17 | 167 | 6 | 15 | 1 | 7
7 | c1ccc(Oc2ncccc2COCCN2CCCN(CC3COc4ccccc4O3)CC2)cc1 (stereo not drawn) | 2.5 | 69.5 | 66.1 | 6.8 | 132 | 275 | 28 | 26 | 19 | 41
